Key:
[1] = test system: MCL-1ΔNΔC; assay: High-throughput competitive FP binding screen, FITC-MCL-1 SAHB/MCL-1ΔNΔC interaction; details: selectivity for MCL-1ΔNΔC over BCL-XLΔC targeting (BCL-XL % Bound minus MCL-1 % Bound)
[2] = target: MCL-1ΔNΔC (Homo sapiens, UniProt Q07820); assay: as above; parameters: the C-terminal alpha-helix was deleted from each of these constructs; GST (N, cleaved yes); made in house; details: FITC-MCL-1 SAHB/MCL-1ΔNΔC interaction pair, competitive FP screen
[3] = target: BCL-XLΔC (Homo sapiens, UniProt Q07817); assay: High-throughput competitive FP binding screen, FITC-BAD BH3/BCL-XLΔC interaction; details: FITC-BAD BH3/BCL-XLΔC interaction pair, competitive FP screen
Chain of BCL-XLΔC (Q07817 1-212 limits assumed, stated change not applied): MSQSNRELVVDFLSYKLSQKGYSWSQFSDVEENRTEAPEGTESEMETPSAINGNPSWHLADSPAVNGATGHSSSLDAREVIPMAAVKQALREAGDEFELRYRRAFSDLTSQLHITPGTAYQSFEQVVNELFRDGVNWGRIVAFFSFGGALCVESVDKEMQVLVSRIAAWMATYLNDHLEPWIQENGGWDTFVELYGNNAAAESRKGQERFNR

Chain of MCL-1ΔNΔC (Homo sapiens, UniProt Q07820) (Q07820 172-320 limits assumed, stated change not applied): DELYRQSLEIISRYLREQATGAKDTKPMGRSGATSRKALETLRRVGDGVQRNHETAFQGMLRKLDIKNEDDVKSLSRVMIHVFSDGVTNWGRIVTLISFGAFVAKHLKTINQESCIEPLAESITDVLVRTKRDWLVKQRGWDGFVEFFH

Structure (SMILES)	Spec Values [1]	MCL-1% Bound [2]	BCL-XL % Bound [3]
Oc1c(Cl)cc(Cl)cc1Sc1cc(Cl)cc(Cl)c1Cl	73.22	27.2%	100.4%
CCSC1=C(C#N)C(=O)NC(c2ccc(N(C)C)cc2)S1 (stereo not drawn)	49.2	30.49%	79.68%
CCCOC(=O)c1cc(-c2ccc(/C=C3\C(=O)NC(=O)C(C#N)=C3C)o2)ccc1Cl	97.76	−10.6%	87.16%
CC1=C(C#N)C(=O)N(CCc2ccccc2)C(=O)/C1=C/c1ccc(-c2ccc(S(N)(=O)=O)cc2)o1	90.31	7.037%	97.35%
CC1=C(C#N)C(=O)N(C)C(=O)/C1=C/c1ccc(-c2cccc(Cl)c2C)o1	82.88	3.369%	86.24%
CCCOC(=O)c1cc(-c2ccc(/C=C3\C(=O)N(CCCO)C(=O)C(C#N)=C3C)o2)ccc1Cl	82.57	−7.072%	75.5%
CCCN1C(=O)C(C#N)=C(C)/C(=C\c2ccc(-c3ccc(Br)cc3)o2)C1=O	81.6	20.59%	102.2%
CC1=C(C#N)C(=O)N(CC(C)O)C(=O)/C1=C/c1ccc(-c2ccc(C(=O)OC(C)C)cc2)o1 (stereo not drawn)	77.49	30.2%	107.7%
CC1=C(C#N)C(=O)N(CC(C)O)C(=O)/C1=C/c1ccc(-c2ccc(Cl)cc2)o1 (stereo not drawn)	74.32	15.04%	89.37%
C=CCN1C(=O)C(C#N)=C(C)/C(=C\c2ccc(-c3cccc(C(=O)O)c3)o2)C1=O	57.81	31.43%	89.24%
CC1=C(C#N)C(=O)N(CCc2ccccc2)C(=O)/C1=C/c1ccc(-c2ccc3c(c2)COC3=O)o1	53.97	30.81%	84.79%
CC1=C(C#N)C(O)=NC(=O)/C1=C/c1ccc(-c2cccc(C(=O)O)c2)o1	52.9	36.81%	89.7%
COC(=O)c1ccc(-c2ccc(/C=C3/C(=O)N(C)C(=O)C(C#N)=C3C)o2)cc1	52.77	38.82%	91.59%
CC1=C(C#N)C(=O)N(CCc2ccccc2)C(=O)/C1=C\c1ccc(-c2cccc(Cl)c2)o1	49.43	29.33%	78.77%
O=c1oc2cc(Cl)c(O)c(Cl)c2s1	109.9	−5.219%	104.7%
O=c1oc2c(-c3cccc(Cl)c3)cc(O)cc2s1	64.95	11.2%	76.15%
Cc1ccc(C)c(S(=O)(=O)Nc2cc(Cl)c3oc(=O)sc3c2)c1	61.36	25.38%	86.74%
Cc1cccc(C(=O)Oc2ccc3oc(=O)sc3c2)c1	47.88	44.36%	92.24%
Cc1ccc(C2=NC(=O)C(Cc3cc(O)c(O)c(Br)c3)S2)cc1 (stereo not drawn)	93.98	2.607%	96.59%
O=C1N=C(Nc2cccc(Cl)c2Cl)S/C1=C/c1ccco1	73.87	15.57%	89.44%
CCOC(=O)C1=C(Nc2cccc(Cl)c2)S/C(=C\c2ccco2)C1=O	63	48.22%	111.2%
CCOC(=O)C1=C(NC(=O)c2ccccc2)S/C(=C\c2ccc(C)o2)C1=O	58.06	43.16%	101.2%
CCOC(=O)c1ccc(-c2ccc(/C=C3\S/C(=N\N=C4/C(=O)Nc5ccccc54)NC3=O)o2)cc1	53.34	13.28%	66.63%
O=C1N/C(=N/c2ccccc2)S/C1=C/C=C/c1ccco1	48.63	48.95%	97.59%

Structure (SMILES)	Spec Values [1]	MCL-1% Bound [2]	BCL-XL % Bound [3]
COc1ccc(/C=c2\s/c(=C\C(=O)c3ccco3)[nH]c2=O)cc1O	48.14	215.6%	263.7%
O=C1N/C(=N\c2ccc(F)cc2)S/C1=C/c1ccc(N2CCCCCC2)o1	47.38	40.42%	87.8%
CCOc1ccc(NC(=O)CC2C(=O)N(Cc3ccco3)C(=S)N2CCNC(C)=O)cc1 (stereo not drawn)	82.72	19.69%	102.4%
CN(C)/C=C1\SC(=S)N(c2ccc(Br)cc2)C1=O	79.08	33.27%	112.3%
CC(C)C(C(=O)O)N1C(=O)/C(=C/C=C/c2ccco2)SC1=S (stereo not drawn)	76.69	26.08%	102.8%
O=C(NN1C(=O)S/C(=C/C=C/c2ccco2)C1=O)c1ccccc1O	76.1	19.8%	95.8%
O=C1NC(=S)S/C1=C\c1ccc(-c2ccc(S(=O)(=O)N3CCOCC3)cc2)o1	69.33	38.57%	107.9%
O=C(O)C(Cc1ccccc1)N1C(=O)/C(=C\c2ccco2)SC1=S (stereo not drawn)	68.92	21.29%	90.21%
O=C1/C(=C\C=C\c2ccco2)SC(=S)N1NS(=O)(=O)c1ccccc1	66.9	23.0%	89.9%
CN(C)c1ccc(/C=C2\SC(=O)N(CCC(=O)Nc3ccccc3)C2=O)cc1	62.76	29.45%	92.22%
CCCN1C(=O)/C(=C/c2ccc(-c3cccc(C(F)(F)F)c3)o2)NC1=S	57.72	27.93%	85.65%
O=C1NC(=S)C(=C2CCCC2)S1	55.3	38.05%	93.34%
O=C(CCN1C(=O)/C(=C\C=C\c2ccco2)SC1=S)Nc1ccc(C(=O)O)c(O)c1	54.54	21.54%	76.09%
O=C1NC(=O)/C(=C\c2cccc(C(F)(F)F)c2)S1	51.57	42.59%	94.16%
CCN1C(=O)C2Cc3cc(OC)c(OC)cc3CN2C1=O (stereo not drawn)	51.9	39.84%	91.73%
O=C(O)CC1NC(=S)N(Cc2ccccc2)C1=O (stereo not drawn)	50.19	48.71%	98.89%
CC(C)CN1C(=O)/C(=C\c2ccc(-c3ccc(S(N)(=O)=O)cc3)o2)SC1=S	47.35	58.51%	105.9%
CC(C)/N=c1\scc(-c2cccs2)n1/N=C/c1ccc(O)c(O)c1O	124.8	−23.1%	101.7%
Cc1cs/c(=N\C2CCCCC2)n1/N=C/c1ccc(O)c(O)c1O	106.2	−16.27%	89.95%
Cc1nn2c(S)nnc2nc1O	168.5	−65.83%	102.7%
CCN(CC)c1ccc2cc(C(N)=O)/c(=N\NC(=O)c3ccccc3)oc2c1	135.9	−6.592%	129.3%
COc1ccc(C(=O)COC(=O)c2c3c(nc4ccccc24)CCN(C)C3)cc1	119.7	−30.96%	88.79%
Cc1cc2nc(N3CCC(C)CC3)c3ccccc3n2n1	108.5	−1.786%	106.7%

Reference: US20150315211A1, “SMALL MOLECULES FOR THE MODULATION OF MCL-1 AND METHODS OF MODULATING CELL DEATH, CELL DIVISION, CELL DIFFERENTIATION AND METHODS OF TREATING DISORDERS” (priority 2010, published 2015)
